Series [1] is described as follows: Pigment dispersion: wet point and flow point. Particulars: for Fp (flow point), amount of ester oil needed / Wp (wet point), amount of ester oil needed: grams per 100 g of pigment, Black Iron Oxide CI77499. Type of series: physicochemical. The source says:
Black Iron Oxide particles (CI77499, commercially available as YPC335200 from Yipin) were dispersed in each of the ester oils of the present invention and in ester oil commonly used as cosmetic ingredients. Each sample of powder particles was wetted by the dropwise addition of one ester oil and then vigorously blended using a spatula until the wet point and the flow point were reached.
The wet point is defined as the minimum volume of dispersant solution to produce a soft coherent mass; the further minimum addition of dispersant solution to produce flow or falling off of the homogeneous mass from the vertical blade of a horizontally held spatula determines the flow point.
The amounts of dispersant solution (i.e. ester oil) needed to reach the wet point (Wp) and the flow point (Fp) were recorded and reported in the table below, expressed in grams per 100 g of pigment.

Series [2] can be described thus: UV filters dispersion: dispersibility of a solid UV filter in ester oils. Type of series: physicochemical. Further details: key to Filters dispersion t0 1% / Filters dispersion t0 10% / Filters dispersion t24 1% / Filters dispersion t24 10%: D=homogeneous dispersion; S=sediment deposit. Conditions: for Filters dispersion t0 1%: 1% TiO2, storage 0 hours at 25° C.; for Filters dispersion t24 1%: 1% TiO2, storage 24 hours at 25° C.; for Filters dispersion t0 10%: 10% TiO2, storage 0 hours at 25° C.; for Filters dispersion t24 10%: 10% TiO2, storage 24 hours at 25° C.; for dispersion of Titania: in words, compared with reference solvents. On the procedure: The dispersibility of a solid UV filter in different ester oils was tested using Titania (TiO2, commercially available as Titanio Biossido Anatasio from A.C.E.F.). Various ratios of filter/ester (1% and 10% TiO2) were prepared under stirring at 70° C. for 30 minutes. The dispersions were then observed after a storage period of 0 hours (t0) and 24 hours (t24) at ambient temperature (25° C.) to check for the formation of any sediment deposit. Results for each ester are shown in the table below (D=homogeneous dispersion; S=sediment deposit).

We go through four compounds from US12083202B2, “Lipophilic cosmetic compositions containing pelargonic acid esters” (Novamont S.p.A., priority 2015, dated 2024).

For the compound `CCCCCCCCC(=O)OCC(C)(C)COC(=O)CCCCCCCC` [Neopentyl glycol dipelargonate], in series [1], the “Fp (flow point), amount of ester oil needed” value (shortened to “Fp (flow point), amount”) was found to be 166.00 g and the “Wp (wet point), amount of ester oil needed” value (“Wp (wet point), amount” below) is 61.00 g. Moreover, in series [2], the “Filters dispersion t0 1%” value was “D”, the “Filters dispersion t24 1%” value is on record as “S/D”, the “Filters dispersion t0 10%” value is given as “D” and the “Filters dispersion t24 10%” value is “S/D”.

Regarding `CCCCCCCCC(=O)OCC(COC(=O)CCCCCCCC)(COC(=O)CCCCCCCC)COC(=O)CCCCCCCC` [Pentaerythritol tetrapelargonate], in series [1], the “Fp (flow point), amount” value was determined as 132.00 g and the “Wp (wet point), amount” value turned out to be 62.00 g. For the same compound, in series [2], the “Filters dispersion t0 1%” value was “D”, the “Filters dispersion t24 1%” value is reported as “D”, the “Filters dispersion t0 10%” value is reported as “D” and the “Filters dispersion t24 10%” value was “D”. The “dispersion of Titania” value in series [2] is recorded as “even better”.

As to `CC(C)CCCCCCOC(=O)CCCCCC(C)C` [Isononyl Isononanoate, reference compound], in series [1], the “Fp (flow point), amount” value was found to be 145.00 g and the “Wp (wet point), amount” value stood at 50.00 g. Also, in series [2], the “Filters dispersion t0 1%” value was “D”, the “Filters dispersion t24 1%” value is listed as “S”, the “Filters dispersion t0 10%” value was “D” and the “Filters dispersion t24 10%” value is “S”.

For the compound `CCCCCCCCC(=O)OCC(COC(=O)CCCCCCCC)OC(=O)CCCCCCCC` [Glycerol tripelargonate], the “less solvent required in the final composition” value in series [1] (from the minimum difference between Fp and Wp) is “about 30%”. In series [1], the “Fp (flow point), amount” value is given as 100.00 g and the “Wp (wet point), amount” value was 60.00 g. In addition, the dispersion properties entry in series [1] (in words, compared with commonly used cosmetic ingredients) is given as “even better than those of Caprylic/Capric Triglyceride”. Also, in series [2], the “Filters dispersion t0 1%” value was “D”, the “Filters dispersion t24 1%” value is “D”, the “Filters dispersion t0 10%” value is “D” and the “Filters dispersion t24 10%” value is “S/D”. For the same compound, in series [2], the “dispersion of Titania” value was “even better”.
